Measurements taken from US10471149B2 (Insmed Incorporated, priority 2012, dated 2019).
Read-outs that look alike come from different tables or passages of the source.

Key:
[1] = animal models of meningitis caused by pneumococci; cited from earlier work
[2] = cited from earlier work
[3] = Chemical stability of vancomycin in aqueous solution (CDP-I formation by HPLC): effect of pH, organic bases, ethanol, ammonium ions; settings: 4° C. (FIG. 7); high concentration and low pH
Protocol: Selected samples were also incubated at a lower concentration (20 mg/mL).
In buffered samples, an appropriate amount of buffer or amino acid additive was added. The pH values were chosen to cover the range between the lowest and highest acceptable values of pH, including pH 5.0 for lipid stability reasons and pH 6.5, above which degradation is expected to be impractically fast.
The concentration of 200 mg/mL was chosen to mimic what a high intra-liposomal might be but was no higher than this for practical handling purposes. All samples were liquid solutions upon preparation.
For comparison, lower concentration solutions (20 mg/mL) also were prepared by diluting 200 mg/mL samples 10-fold in water. Samples were incubated at 4° C. (in refrigerator) and at ambient temperature (about 23° C., which is referred herein to as “room temperature” or “RT”).

Compound | concentration in cerebrospinal fluid, % of the serum level [1] | AUC [2] | Protein binding [2] | Terminal half-life [2] | Vd [2] | degradation rate [3] | AUC ([2]; in vivo) | Protein binding ([2]; in vivo) | Vd ([2]; in vivo)
CN[C@H](CC(C)C)C(=O)N[C@H]1C(=O)N[C@@H](CC(N)=O)C(=O)N[C@H]2C(=O)N[C@H]3C(=O)N[C@H](C(=O)N[C@H](C(=O)O)c4cc(O)cc(O)c4-c4cc3ccc4O)[C@H](O[C@H]3C[C@](C)(N)[C@@H](O)[C@H](C)O3)c3ccc(c(Cl)c3)Oc3cc2cc(c3O[C@@H]2O[C@H](CO)[C@@H](O)[C@H](O)[C@H]2O[C@H]2C[C@](C)(NCc3ccc(-c4ccc(Cl)cc4)cc3)[C@@H](O)[C@H](C)O2)Oc2ccc(cc2Cl)[C@H]1O [Oritavancin] | 5% | 152 µg·h/mL | 90% | 360 h | – | – | – | – | –
CCCCCCCCCCNCCN[C@@]1(C)C[C@H](O[C@H]2[C@H](Oc3c4cc5cc3Oc3ccc(cc3Cl)[C@@H](O)[C@@H](NC(=O)[C@@H](CC(C)C)NC)C(=O)N[C@@H](CC(N)=O)C(=O)N[C@H]5C(=O)N[C@H]3C(=O)N[C@H](C(=O)N[C@H](C(=O)O)c5cc(O)c(CNCP(=O)(O)O)c(O)c5-c5cc3ccc5O)[C@H](O)c3ccc(c(Cl)c3)O4)O[C@H](CO)[C@@H](O)[C@@H]2O)O[C@@H](C)[C@H]1O [Telavancin] | – | 600 µg·h/mL | 90-93% | 7 h | – | – | – | – | –
CN[C@H](CC(C)C)C(=O)N[C@H]1C(=O)N[C@@H](CC(N)=O)C(=O)N[C@H]2C(=O)N[C@H]3C(=O)N[C@H](C(=O)N[C@H](C(=O)O)c4cc(O)cc(O)c4-c4cc3ccc4O)[C@H](O)c3ccc(c(Cl)c3)Oc3cc2cc(c3O[C@@H]2O[C@H](CO)[C@@H](O)[C@H](O)[C@H]2O[C@H]2C[C@](C)(N)[C@H](O)[C@H](C)O2)Oc2ccc(cc2Cl)[C@H]1O [Vancomycin] | – | 260 µg·h/mL | 10-55% | 4 to 8 h | 0.3 L/kg | about 0.1 % per week | – | – | –
Teicoplanin | – | 550 µg·h/mL | 90% | 83 to 168 h | 0.9 to 1.6 L/kg | – | – | – | –
CN[C@H]1C(=O)N[C@@H]2Cc3ccc(cc3)Oc3cc4cc(c3O[C@@H]3O[C@H](C(=O)O)[C@@H](O)[C@H](O)[C@H]3NC(=O)CCCCCCCCC(C)C)Oc3ccc(cc3Cl)[C@@H](O)[C@@H]3NC(=O)[C@H](NC(=O)[C@@H]4NC(=O)[C@@H](NC2=O)c2cc(cc(O)c2Cl)Oc2cc1ccc2O)c1ccc(O)c(c1)-c1c(O[C@H]2O[C@H](CO)[C@@H](O)[C@H](O)[C@@H]2O)cc(O)cc1[C@@H](C(=O)NCCCN(C)C)NC3=O [Dalbavanc in, Dalbavancin] | – | – | – | – | – | – | 27103 µg·h/mL | 98% | 0.11 L/kg
